Reference: the NIST ThermoML archive (doi:10.1016/j.jct.2016.03.034)

Tests used:
[1] = 101.33 kPa, Liquid; for mass density: Vibrating tube method; for viscosity: Capillary tube (Ostwald / Ubbelohde) method
[2] = xn = mol fraction of the nth substance listed; details: 100 kPa, Liquid, x1 = 1; for viscosity: Capillary tube (Ostwald / Ubbelohde) method; for mass density: Vibrating tube method

CCCCCCCCn1cc[n+](C)c1.O=S(=O)([N-]S(=O)(=O)C(F)(F)F)C(F)(F)F
[1]
Details | mass density [kg/m3] | viscosity [mPa·s]
273.15 K | 1340.42 | –
283.15 K | 1331.26 | 208.88
293.15 K | 1324.82 | 114.86
298.15 K | 1320.47 | 88.59
303.15 K | 1316.05 | 69.08
308.15 K | 1311.64 | 55.38
313.15 K | 1307.24 | 45.03
318.15 K | 1302.85 | 37.25
323.15 K | 1298.47 | 30.83

CCCCCC[n+]1ccn(C)c1.O=S(=O)([N-]S(=O)(=O)C(F)(F)F)C(F)(F)F
[1]
Details | mass density [kg/m3] | viscosity [mPa·s]
273.15 K | 1395.43 | 279.26
278.15 K | 1390.66 | –
283.15 K | 1386.02 | 148.8
288.15 K | 1381.44 | –
293.15 K | 1376.84 | 87.29
298.15 K | 1371.81 | 70.52
303.15 K | 1367.68 | 55.92
308.15 K | 1363.11 | 47.46
313.15 K | 1357.51 | 37.22
318.15 K | 1352.62 | 31.35
323.15 K | 1349.46 | 25.95

CCn1cc[n+](C)c1.O=S(=O)([N-]S(=O)(=O)C(F)(F)F)C(F)(F)F
[1]
Details | mass density [kg/m3] | viscosity [mPa·s]
293.15 K | 1523.44 | 37.8
298.15 K | 1518.3 | 31.79
303.15 K | 1513.11 | 26.84
308.15 K | 1507.9 | 22.9
313.15 K | 1502.68 | 19.75
318.15 K | 1497.48 | 17.05
323.15 K | 1492.24 | 15.02

CCCCCCCCn1cc[n+](C)c1.O=S(=O)([N-]S(=O)(=O)C(F)(F)F)C(F)(F)F + O=C1CCCO1
[2]
Details | mass density [kg/m3] | viscosity [mPa·s]
293.15 K | 1324.82 | 114.86
298.15 K | 1320.47 | 88.59
303.15 K | 1316.05 | 69.08
308.15 K | 1311.64 | 56.43
313.15 K | 1307.24 | 45.03
318.15 K | 1302.85 | 37.25
323.15 K | 1298.47 | 30.83

CCCCCC[n+]1ccn(C)c1.O=S(=O)([N-]S(=O)(=O)C(F)(F)F)C(F)(F)F + O=C1CCCO1
[2]
Details | mass density [kg/m3] | viscosity [mPa·s]
293.15 K | 1376.84 | 87.29
298.15 K | 1371.81 | 70.52
303.15 K | 1367.68 | 55.92
308.15 K | 1363.11 | 47.46
313.15 K | 1357.51 | 37.22
318.15 K | 1352.62 | 31.35
323.15 K | 1349.46 | 25.95

CCn1cc[n+](C)c1.O=S(=O)([N-]S(=O)(=O)C(F)(F)F)C(F)(F)F + O=C1CCCO1
[2]
Details | mass density [kg/m3] | viscosity [mPa·s]
293.15 K | 1523.44 | 37.8
298.15 K | 1518.3 | 31.79
303.15 K | 1513.11 | 26.84
308.15 K | 1507.9 | 22.9
313.15 K | 1502.68 | 19.75
318.15 K | 1497.48 | 17.05
323.15 K | 1492.24 | 15.02
